# Measured values as given in publication PMC7300217, “Surfactin Like Broad Spectrum Antimicrobial Lipopeptide Co-produced With Sublancin From Bacillus subtilis Strain A52: Dual Reservoir of Bioactives” (Frontiers in Microbiology, 2020).
# What was measured:
# S. aureus MTCC 1430 [1] = test: Time kill assay; format: cell-based, Staphylococcus aureus; conditions: 5X MIC, cells in PBS, CFU plated on nutrient agar
# Protocol: Purified AMPs were used to perform time kill assay against S. aureus MTCC 1430 as mentioned earlier ([Baindara et al., 2016]). Actively growing bacterial culture (0.2–0.3 OD at 600 nm) was centrifuged (10,000 rpm for 15 min at 4°C) and washed thrice with sterile PBS buffer. […] Upon incubation for different time intervals, cells were removed from reaction mixture by centrifugation and washed with PBS buffer. Bacterial culture without AMP treatment was used as negative control. Samples were withdrawn at the end of different treatment time points starting from 0 to 8 h, bacterial cells were pelleted, serially diluted, and cell suspensions were plated on nutrient agar plates. For each treatment, negative controls were also processed under identical conditions and plated on NA. CFU at different time intervals were recorded after overnight incubation at 37°C.
# F. moniliforme MTCC 158 = test: MIC against phytopathogenic fungi, 96-well microtiter plate assay; format: cell-based, Fusarium moniliforme; conditions: 1 × 10^5 spores/ml in PDB, 25°C, OD600 after 48 h, triplicate
# Protocol: (§1) The antimicrobial activity was tested by well diffusion assay as mentioned earlier ([Singh et al., 2014]). Strain A52 was grown for 24 h in 500 ml of nutrient broth (NB, Hi-media, India) using 1000 ml flask and subsequently cells were removed by centrifugation (10,000 rpm for 15 min at 4°C). Supernatant was filtered through 0.22 μm filter (Millipore, United States) to obtain cell-free fermented broth (CFB) that was used for antimicrobial assay (50 μl) against various indicator strains and the activity was measured as diameter of inhibition zone. Test strains used were Staphylococcus aureus (MTCC 1430), Bacillus subtilis (MTCC 121), B. firmus (MTCC 488), B. licheniformis (MTCC 429), B. thuringiensis (MTCC 1953), Escherichia coli (MTCC 1610), Micrococcus luteus (MTCC 106), Steptococcus pyrogens (MTCC 1928), S. anginosus (MTCC 1929), S. oralis (MTCC 2696), S. mutans (MTCC 497), Candida albicans (MTCC 1637), C. albicans (MTCC 183), C. albicans (MTCC 227), C. tropicalis (MTCC 184), C. glabrata (MTCC 3019), C. haemulonii (MTCC 2766), and C. inconsplicue (MTCC 1074). The phytopathogenic fungi employed in this study were Alternaria brassicicola (MTCC 2102), Colletotrichum acutatum (MTCC 1037), and Fusarium moniliforme (MTCC 158). Clinical isolates of Candida were provided by National Culture Collection of Pathogenic Fungi (NCCPF), PGIMER, Chandigarh, India.
# (§2) The minimum inhibitory concentration (MIC) of HPLC purified peptides was evaluated by using microtiter plate dilution assay. The peptide concentration was estimated using BCA protein assay (Thermo Fisher Scientific, United States) method as described by manufacturer. […] OD was measured at 600 nm after 24 and 48 h for bacteria and yeast, respectively, using ELISA microplate reader (Thermo, United States). MIC against phytopathogenic fungi was determined using 96-well microtiter plate assay ([Kaur et al., 2016]). […] The microplates were incubated at 25°C and readings were recorded at 600 nm after 48 h. […]
# proteinase K = target: T1, proteinase K (Parengyodontium album, UniProt P06873); test: Sensitivity to proteolytic enzyme, residual antimicrobial activity; format: in vitro ADME; conditions: 6h/ 37°C, enzyme 0.1, 1.0 and 5.0 mg/ml in 50 mM phosphate buffer pH 7.0, enzyme deactivated in boiling water 5 min
# T1 construct: purchased Sigma, United States
# Protocol: (§3) Sensitivity of purified peptides toward temperature, pH, and non-specific proteases was confirmed by performing bioassays. The pH stability was determined by adjusting the pH 2.0–12.0 of peptide aliquots (using 10 mM HCl or NaOH) and incubating for 4 h at room temperature. Samples were neutralized to pH 7.0 before processing for antimicrobial assay. To determine temperature susceptibility, peptides were incubated at different temperatures ranging from 37 to 100°C for 1 h and 121°C for 15 min and residual antimicrobial activity was determined at RT by well diffusion assay. Proteolytic enzymes trypsin and proteinase K (Sigma, United States) were used at three different concentrations (0.1, 1.0, and 5.0 mg/ml) to observe their effect on the peptide. The enzyme solutions were prepared in 50 mM phosphate buffer (pH 7.0). All reactions were performed at 37°C for 6 h followed by deactivation of enzyme by heating the solution in boiling water for 5 min before performing the activity assay.
# [2] = tested on: C. parasilosis 450030 (clinical isolate); test: MIC, microtiter plate dilution assay; format: cell-based; conditions: 5 × 10^5 CFU/ml, 37°C, OD600 after 48 h, triplicate
# Protocol: as §1
# (§4) The minimum inhibitory concentration (MIC) of HPLC purified peptides was evaluated by using microtiter plate dilution assay. The peptide concentration was estimated using BCA protein assay (Thermo Fisher Scientific, United States) method as described by manufacturer. Actively growing test strains (5 × 10^5 CFU/ml) were inoculated in a 96-well plate with different concentrations of the peptides and plates were incubated for 24–48 h at 37°C (final volume in each well is 200 μl). OD was measured at 600 nm after 24 and 48 h for bacteria and yeast, respectively, using ELISA microplate reader (Thermo, United States). MIC against phytopathogenic fungi was determined using 96-well microtiter plate assay ([Kaur et al., 2016]). In 96-well microplates, 100 μl of fungal spore suspension (1 × 10^5 spores/ml) prepared in potato dextrose broth (PDB, Hi-media, India) was mixed with100 μl of fresh PDB containing different concentrations of lipopeptide. Control well contained 100 μl of fungal spore suspension and 100 μl of only medium. The microplates were incubated at 25°C and readings were recorded at 600 nm after 48 h. The lowest concentration showing no growth was considered as MIC. Each test was done in triplicate and optical density (OD600) of peptide treated wells were compared with uninoculated wells (blank medium control).
# C. tropicalis MTCC 184 = test: MIC, microtiter plate dilution assay; format: cell-based; conditions: 5 × 10^5 CFU/ml, 37°C, OD600 after 48 h, triplicate
# Protocol: as §1, §4
# [3] = tested on: C. glabrata SKSS ID (clinical isolate); test: MIC, microtiter plate dilution assay; format: cell-based; conditions: 5 × 10^5 CFU/ml, 37°C, OD600 after 48 h, triplicate
# Protocol: as §1, §4
# S. oralis MTCC 2696 = test: MIC, microtiter plate dilution assay; format: cell-based; conditions: 5 × 10^5 CFU/ml, 37°C, OD600 after 24 h, triplicate
# Protocol: as §1, §4
# [4] = tested on: C. krusei 440009 (clinical isolate); test: MIC, microtiter plate dilution assay; format: cell-based; conditions: 5 × 10^5 CFU/ml, 37°C, OD600 after 48 h, triplicate
# Protocol: as §1, §4
# S. anginosus MTCC1929 = test: MIC, microtiter plate dilution assay; format: cell-based; conditions: 5 × 10^5 CFU/ml, 37°C, OD600 after 24 h, triplicate
# Protocol: as §1, §4
# [5] = tested on: C. aurius 470126 (clinical isolate); test: MIC, microtiter plate dilution assay; format: cell-based; conditions: 5 × 10^5 CFU/ml, 37°C, OD600 after 48 h, triplicate
# Protocol: as §1, §4
# [6] = tested on: A. brassicicola MTCC 2102; test: MIC against phytopathogenic fungi, 96-well microtiter plate assay; format: cell-based, Alternaria brassicicola; conditions: 1 × 10^5 spores/ml in PDB, 25°C, OD600 after 48 h, triplicate
# Protocol: (§5) The antimicrobial activity was tested by well diffusion assay as mentioned earlier ([Singh et al., 2014]). Strain A52 was grown for 24 h in 500 ml of nutrient broth (NB, Hi-media, India) using 1000 ml flask and subsequently cells were removed by centrifugation (10,000 rpm for 15 min at 4°C). Supernatant was filtered through 0.22 μm filter (Millipore, United States) to obtain cell-free fermented broth (CFB) that was used for antimicrobial assay (50 μl) against various indicator strains and the activity was measured as diameter of inhibition zone. […]
# as §2, with “assay.” for “assay. The peptide concentration was estimated using BCA protein assay (Thermo Fisher Scientific, United States) method as described by manufacturer.”
# [7] = Temperature sensitivity, residual antimicrobial activity; format: physicochemical; conditions: residual antimicrobial activity by well diffusion assay at RT; for Residual activity (%), temperature 100 ºC: 100 °C
# Protocol: as §3
# S. aureus MTCC 1430 [8] = test: MIC, microtiter plate dilution assay; format: cell-based, Staphylococcus aureus; conditions: 5 × 10^5 CFU/ml, 37°C, OD600 after 24 h, triplicate
# Protocol: as §5
# as §2, with “assay.” for “assay. The peptide concentration was estimated using BCA protein assay (Thermo Fisher Scientific, United States) method as described by manufacturer.”
# T1 sequence (P06873 106-384): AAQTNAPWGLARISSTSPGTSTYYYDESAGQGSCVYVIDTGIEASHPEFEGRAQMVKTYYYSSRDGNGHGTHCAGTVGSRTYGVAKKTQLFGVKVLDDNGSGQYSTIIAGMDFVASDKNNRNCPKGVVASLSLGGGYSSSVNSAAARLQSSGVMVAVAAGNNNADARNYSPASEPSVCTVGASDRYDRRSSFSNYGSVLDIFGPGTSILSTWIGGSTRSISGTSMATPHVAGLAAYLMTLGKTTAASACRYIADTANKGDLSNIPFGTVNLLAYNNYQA
substance,measurement,setting,value
"Glu^1-Leu/Ile^2-Leu^3-Val^4-Asp^5-Leu^6-Leu/Ile^7 and a β-OH hexadecane fatty acid chain (lariat or depsi) [Lipopeptide A52, cyclic surfactin-like lipopeptide, 7 amino acids and C16 β-hydroxy fatty acid, 1061.9 Da, from B. subtilis strain A52]",time of treatment to complete killing / complete reduction of bacterial load,S. aureus MTCC 1430 [1],≤ 7 h
same,"MIC value, F. moniliforme MTCC 158",F. moniliforme MTCC 158,20 µg/mL
same,"Residual activity (%), Proteinase k",proteinase K,100%
same,"MIC value, C. parasilosis 450030",[2],28 µg/mL
same,"MIC value, C. tropicalis MTCC 184",C. tropicalis MTCC 184,12 µg/mL
same,"MIC value, C. glabrata SKSS ID",[3],16 µg/mL
same,"MIC value, S. oralis MTCC 2696",S. oralis MTCC 2696,4 µg/mL
same,"MIC value, C. krusei 440009",[4],12 µg/mL
same,"MIC value, S. anginosus MTCC1929",S. anginosus MTCC1929,4 µg/mL
same,"MIC value, C. aurius 470126",[5],26 µg/mL
same,"MIC value, A. brassicicola MTCC 2102",[6],25 µg/mL
same,"Residual activity (%), temperature 37 ºC","[7]; 37 °C, 1h",100%
same,"Residual activity (%), temperature 50 ºC","[7]; 50 °C, 1h",100%
same,"Residual activity (%), temperature 60 ºC","[7]; 60 °C, 1h",100%
same,"Residual activity (%), temperature 70 ºC","[7]; 70 °C, 1h",100%
same,"Residual activity (%), temperature 80 ºC","[7]; 80 °C, 1h",100%
same,"Residual activity (%), temperature 100 ºC","[7]; 1h, listed as Lipopeptide",100%
same,"Residual activity (%), temperature 100 ºC","[7]; 1h, listed as surfactin-like lipopeptide",not affected
same,"Residual activity (%), temperature 121 ºC (autoclaving)","[7]; 121 °C, 15 min (15 lbs)",89.0%
same,"MIC value, S. aureus MTCC 1430",S. aureus MTCC 1430 [8],4 µg/mL
